This passage reports Activity and IC50 results from ChEMBL document CHEMBL4418260, “Cyclopentanecarboxamide derivatives, medicaments containing such compounds and their use” (2017).

What all share (assay type): cell-based
Experiment [1] concerns the target Fatty acid synthase (Mus musculus) (UniProt P19096). The experiment is described as follows: Inhibition of FAS in mouse N42 cells assessed as [14C]-acetate incorporation at 10 uM preincubated for 60 mins followed by [14C]-acetate addition and measured after 4 hrs by beta scintillation counting method relative to control. Details: scale not given: the % may be the effect or the level left.

For the next experiment, the target named is Fatty acid synthase (Homo sapiens, UniProt P49327). The experiment can be described thus: Inhibition of human HeLa cell derived FAS preincubated for 60 mins in presence of acetyl coenzyme A and NADPH followed by malonyl coenzyme A addition and measured after 10 mins by fluorescence method.
Fatty acid synthase, sequence (P49327 whole entry): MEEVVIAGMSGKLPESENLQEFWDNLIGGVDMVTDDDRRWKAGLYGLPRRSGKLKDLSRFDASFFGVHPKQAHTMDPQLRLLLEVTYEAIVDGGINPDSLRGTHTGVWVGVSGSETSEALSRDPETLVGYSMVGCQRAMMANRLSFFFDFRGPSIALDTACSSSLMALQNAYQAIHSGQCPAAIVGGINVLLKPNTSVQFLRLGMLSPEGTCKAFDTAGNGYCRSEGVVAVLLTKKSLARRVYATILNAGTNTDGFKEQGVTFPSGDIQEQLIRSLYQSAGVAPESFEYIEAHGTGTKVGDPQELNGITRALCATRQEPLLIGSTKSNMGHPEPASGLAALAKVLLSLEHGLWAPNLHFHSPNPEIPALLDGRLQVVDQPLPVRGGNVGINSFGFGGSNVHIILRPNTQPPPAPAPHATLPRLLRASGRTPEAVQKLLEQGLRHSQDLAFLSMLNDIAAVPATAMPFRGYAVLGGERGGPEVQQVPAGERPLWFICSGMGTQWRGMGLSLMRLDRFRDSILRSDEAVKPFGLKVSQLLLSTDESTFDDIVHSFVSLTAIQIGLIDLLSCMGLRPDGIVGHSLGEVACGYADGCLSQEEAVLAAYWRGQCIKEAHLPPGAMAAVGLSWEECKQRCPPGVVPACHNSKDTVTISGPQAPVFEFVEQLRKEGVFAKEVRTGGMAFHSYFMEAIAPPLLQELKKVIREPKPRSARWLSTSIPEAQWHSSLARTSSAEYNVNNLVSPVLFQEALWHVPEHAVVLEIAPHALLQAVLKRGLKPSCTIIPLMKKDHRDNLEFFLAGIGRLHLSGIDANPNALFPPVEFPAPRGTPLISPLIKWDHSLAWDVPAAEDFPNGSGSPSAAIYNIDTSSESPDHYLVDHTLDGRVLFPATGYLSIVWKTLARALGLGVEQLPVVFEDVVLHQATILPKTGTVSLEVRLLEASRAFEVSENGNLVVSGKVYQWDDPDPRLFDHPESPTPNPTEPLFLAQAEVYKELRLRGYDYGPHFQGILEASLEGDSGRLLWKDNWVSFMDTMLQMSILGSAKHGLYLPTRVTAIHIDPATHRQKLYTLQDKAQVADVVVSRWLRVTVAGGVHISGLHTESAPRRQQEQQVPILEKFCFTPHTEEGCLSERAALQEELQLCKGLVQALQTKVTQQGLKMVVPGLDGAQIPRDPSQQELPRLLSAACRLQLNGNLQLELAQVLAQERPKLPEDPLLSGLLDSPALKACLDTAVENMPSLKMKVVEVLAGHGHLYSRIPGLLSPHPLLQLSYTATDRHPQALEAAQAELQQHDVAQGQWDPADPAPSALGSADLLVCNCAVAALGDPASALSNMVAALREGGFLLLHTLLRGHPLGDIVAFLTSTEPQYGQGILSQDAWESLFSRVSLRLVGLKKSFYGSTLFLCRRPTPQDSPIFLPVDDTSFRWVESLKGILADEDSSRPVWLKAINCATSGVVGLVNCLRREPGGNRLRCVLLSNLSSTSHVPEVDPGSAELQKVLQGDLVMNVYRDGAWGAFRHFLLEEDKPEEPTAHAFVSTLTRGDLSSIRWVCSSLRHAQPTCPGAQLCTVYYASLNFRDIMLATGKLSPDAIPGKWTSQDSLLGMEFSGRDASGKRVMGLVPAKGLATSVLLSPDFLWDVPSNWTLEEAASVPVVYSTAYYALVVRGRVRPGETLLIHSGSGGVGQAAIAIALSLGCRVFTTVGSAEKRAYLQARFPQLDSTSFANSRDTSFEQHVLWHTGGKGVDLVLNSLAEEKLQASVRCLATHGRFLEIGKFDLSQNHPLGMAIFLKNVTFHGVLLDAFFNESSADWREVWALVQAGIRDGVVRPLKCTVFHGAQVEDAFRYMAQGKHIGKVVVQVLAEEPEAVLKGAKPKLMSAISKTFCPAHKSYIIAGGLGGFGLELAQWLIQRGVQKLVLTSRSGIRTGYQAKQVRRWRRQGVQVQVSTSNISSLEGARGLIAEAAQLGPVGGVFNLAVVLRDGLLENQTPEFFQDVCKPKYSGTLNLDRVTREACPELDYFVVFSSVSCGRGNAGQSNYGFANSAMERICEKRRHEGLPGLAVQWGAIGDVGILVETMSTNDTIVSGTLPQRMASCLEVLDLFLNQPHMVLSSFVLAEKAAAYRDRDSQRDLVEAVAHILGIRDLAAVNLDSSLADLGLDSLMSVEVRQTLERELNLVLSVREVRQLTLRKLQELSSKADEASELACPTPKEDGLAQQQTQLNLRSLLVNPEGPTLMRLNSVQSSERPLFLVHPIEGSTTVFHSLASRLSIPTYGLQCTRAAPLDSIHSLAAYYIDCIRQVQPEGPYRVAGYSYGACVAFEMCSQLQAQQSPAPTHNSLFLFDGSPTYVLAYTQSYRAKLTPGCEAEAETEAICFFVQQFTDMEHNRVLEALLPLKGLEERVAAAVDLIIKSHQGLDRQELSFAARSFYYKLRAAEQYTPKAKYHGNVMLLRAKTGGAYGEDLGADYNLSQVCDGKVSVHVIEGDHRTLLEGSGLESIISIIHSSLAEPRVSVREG
Experiment [2] deals with Fatty acid synthase (Mus musculus) (UniProt P19096). The experiment is described as follows: Inhibition of FAS in mouse N42 cells assessed as [14C]-acetate incorporation at 100 uM preincubated for 60 mins followed by [14C]-acetate addition and measured after 4 hrs by beta scintillation counting method relative to control. Details: scale not given: the % may be the effect or the level left.
Fatty acid synthase (Mus musculus), sequence (P19096 whole entry): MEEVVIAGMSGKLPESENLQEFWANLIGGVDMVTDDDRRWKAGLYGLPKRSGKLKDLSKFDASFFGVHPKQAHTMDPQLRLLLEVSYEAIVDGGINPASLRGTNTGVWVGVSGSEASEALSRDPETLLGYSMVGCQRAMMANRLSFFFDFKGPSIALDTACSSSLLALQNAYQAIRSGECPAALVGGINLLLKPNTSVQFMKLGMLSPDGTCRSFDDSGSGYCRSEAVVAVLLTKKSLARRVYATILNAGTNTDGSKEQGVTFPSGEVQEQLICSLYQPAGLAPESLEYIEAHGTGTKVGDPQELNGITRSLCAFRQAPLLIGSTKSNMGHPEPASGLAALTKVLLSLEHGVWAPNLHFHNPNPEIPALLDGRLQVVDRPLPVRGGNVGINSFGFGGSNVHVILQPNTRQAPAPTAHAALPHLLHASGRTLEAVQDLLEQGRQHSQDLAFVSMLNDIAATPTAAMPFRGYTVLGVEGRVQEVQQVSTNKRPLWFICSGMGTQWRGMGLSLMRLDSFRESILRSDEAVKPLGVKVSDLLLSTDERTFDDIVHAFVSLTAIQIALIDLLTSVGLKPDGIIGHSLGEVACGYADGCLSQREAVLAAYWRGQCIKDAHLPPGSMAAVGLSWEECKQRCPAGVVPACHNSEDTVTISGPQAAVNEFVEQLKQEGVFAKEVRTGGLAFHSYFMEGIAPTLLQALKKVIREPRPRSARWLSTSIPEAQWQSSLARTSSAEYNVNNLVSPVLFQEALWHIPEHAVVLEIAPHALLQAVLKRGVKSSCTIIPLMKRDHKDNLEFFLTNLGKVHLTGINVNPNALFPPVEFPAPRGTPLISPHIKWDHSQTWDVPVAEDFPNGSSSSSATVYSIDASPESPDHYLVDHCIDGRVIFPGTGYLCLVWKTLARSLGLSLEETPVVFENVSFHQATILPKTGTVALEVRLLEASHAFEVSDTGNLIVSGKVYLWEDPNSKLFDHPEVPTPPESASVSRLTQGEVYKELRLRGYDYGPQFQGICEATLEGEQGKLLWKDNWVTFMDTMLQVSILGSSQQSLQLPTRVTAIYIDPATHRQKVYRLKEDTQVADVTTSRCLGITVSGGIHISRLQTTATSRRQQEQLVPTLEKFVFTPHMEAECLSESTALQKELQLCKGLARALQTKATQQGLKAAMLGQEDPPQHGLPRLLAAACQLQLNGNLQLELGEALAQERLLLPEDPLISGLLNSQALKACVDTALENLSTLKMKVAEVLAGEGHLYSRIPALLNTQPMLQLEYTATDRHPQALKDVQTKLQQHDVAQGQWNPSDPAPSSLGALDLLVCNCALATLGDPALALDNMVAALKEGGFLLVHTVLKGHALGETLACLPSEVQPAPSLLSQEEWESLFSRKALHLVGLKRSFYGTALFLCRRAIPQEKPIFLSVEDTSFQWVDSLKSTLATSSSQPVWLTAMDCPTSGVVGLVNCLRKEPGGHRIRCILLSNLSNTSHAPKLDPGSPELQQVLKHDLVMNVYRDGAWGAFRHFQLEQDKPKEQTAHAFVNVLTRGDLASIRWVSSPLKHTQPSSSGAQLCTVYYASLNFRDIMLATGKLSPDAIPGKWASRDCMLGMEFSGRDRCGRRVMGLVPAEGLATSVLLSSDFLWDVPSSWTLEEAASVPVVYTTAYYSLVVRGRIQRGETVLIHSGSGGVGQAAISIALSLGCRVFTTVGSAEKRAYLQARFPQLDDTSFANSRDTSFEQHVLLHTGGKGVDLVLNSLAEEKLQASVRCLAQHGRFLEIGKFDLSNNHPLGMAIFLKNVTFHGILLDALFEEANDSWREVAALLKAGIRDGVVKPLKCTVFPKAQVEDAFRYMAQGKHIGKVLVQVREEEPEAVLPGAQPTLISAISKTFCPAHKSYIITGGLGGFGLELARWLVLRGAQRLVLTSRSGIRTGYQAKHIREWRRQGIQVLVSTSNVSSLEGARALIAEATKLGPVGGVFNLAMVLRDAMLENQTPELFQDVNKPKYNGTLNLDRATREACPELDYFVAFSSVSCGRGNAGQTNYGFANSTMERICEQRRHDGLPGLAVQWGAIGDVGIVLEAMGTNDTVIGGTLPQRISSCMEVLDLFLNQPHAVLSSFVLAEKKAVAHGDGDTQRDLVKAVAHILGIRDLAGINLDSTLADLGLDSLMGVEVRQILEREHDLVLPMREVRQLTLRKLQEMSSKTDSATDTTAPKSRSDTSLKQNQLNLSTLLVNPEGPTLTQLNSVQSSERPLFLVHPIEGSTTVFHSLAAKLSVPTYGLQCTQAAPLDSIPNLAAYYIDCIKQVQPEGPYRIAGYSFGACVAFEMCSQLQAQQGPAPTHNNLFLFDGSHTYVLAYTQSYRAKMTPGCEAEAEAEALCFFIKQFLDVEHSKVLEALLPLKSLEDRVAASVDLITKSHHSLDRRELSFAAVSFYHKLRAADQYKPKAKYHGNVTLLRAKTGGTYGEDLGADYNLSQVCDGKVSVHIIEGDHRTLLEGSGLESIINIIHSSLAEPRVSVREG

With `CCC(=O)N[C@H]1CC[C@@H](C(=O)N(C)c2ccc(-c3nc4ccccc4n3C)cc2)C1`, the Activity in experiment [1] came to 85.7%.

What is called IC50 is the concentration needed to halve the response being measured. Regarding `CN(C)CCCCCC(=O)N[C@H]1CC[C@@H](C(=O)N(C)c2ccc(-c3nc4ccccc4o3)cc2)C1`, the IC50 at Fatty acid synthase is 500 to 3000 nM.

Consider `CCC(=O)N[C@H]1CC[C@@H](C(=O)N(C)c2ccc(-c3nc4ccccc4o3)cc2)C1`, for which the Activity in experiment [1] came to 64.1%.

Take `CCC(=O)N[C@H]1CC[C@@H](C(=O)N(C)c2ccc(-c3ccccc3)cc2)C1`: the Activity in experiment [1] came to 76.8%.

As for `CCCC(=O)N[C@H]1CC[C@@H](C(=O)N(C)c2ccc(-c3nc4ccccc4o3)cc2)C1`, the Activity in experiment [1] was 81%.

With `CC(=O)N[C@H]1CC[C@@H](C(=O)N(C)c2ccc(-c3nc4ccccc4o3)cc2)C1`, the Activity in experiment [1] came out at 81.7%.

Regarding `CCC(=O)N[C@H]1CC[C@@H](C(=O)N(C)c2ccc(-c3nc4ccccc4[nH]3)cc2)C1`, the Activity in experiment [1] was determined as 80.8%.

For `C/C=C/C/C=C/CCC(=O)[C@H]1O[C@H]1C(N)=O`, the Activity in experiment [2] amounted to 73.3%.
